According to paper PMC6014988, “Precision therapeutic targeting of human cancer cell motility” (Nature Communications, 2018):
Values belong to the molecule of their own block, whether it stands above or below them.

What was measured:
over 9000 human proteins = assay: ProtoArray Human Protein Microarray binding assay; details: levels >/= 10 fold above background
Description: The ProtoArray® assay, using the Human Protein Microarray platform, was performed by Invitrogen. […]
followed by detection with FITC-streptavidin, and visualization by fluorescent microscopy (with equal exposure times). (d) Protein array hybridization. KBU2046-biotin was hybridized to ProtoArray® Human Protein Microarray’s at 0.5 and 10 µM with and without 10 fold excess free KBU2046. We first sought proteins that met the following criteria, and did so at both 0.5 and 10 µM concentrations of KBU2046-biotin (in the absence of free KBU2046): Z-Score greater than 2.5, Z-Factor greater than 0.5, CI P-value less than 0.05, negative control value <2,000 (relative fluorescence units; RFUs), and a signal/negative control signal of >10 and >5 for 10 µM and 0.5 µM conditions, respectively. This yielded 3 proteins, shown in table, for an initial hit rate of 0.03%. We then required free KBU2046 to inhibit binding by >75%. Of the two remaining candidates, we eliminated isovaleryl-CoA dehydrogenase (ICD). Its binding signal doubled on […]
suspected non-specific binding by the biotin-linker moiety. We deemed cysteine and glycine-rich protein 1 (CSRP1) our top priority protein, though its binding characteristics at 10 µM + free KBU2046 were similar to ICD, albeit not as extreme. We thus evaluated whether KBU2046- […]
There were two additional notable findings from protein array studies. […]

PC3-M cells = assay: Boyden chamber cell invasion assay, PC3-M cells; type: cell-based, human; details: PC3-M cells, 10 µM compound, 3 days
Description: Boyden chamber cell invasion assays were performed as previously described by us[30], using either denatured collagen (BD Biosciences) or type IV human collagen (BD Biosciences), with all experiments repeated, each in N = 4 replicates. In some experiments, as indicated, cells were transfected with an expression plasmid, using Lipofectamine 2000™ (Invitrogen), or with siRNA, using DharmaFect Duo (Thermo Scientific) and co-transfected with β-Galactosidase (Plasmid pCMV•SPORT-βgal; Life Technology). […]
For cell invasion, PC3-M cells […]
were treated with 10 µM compound for a total of 3 days, and cell invasion assays were run at the end of the 3 day period, in the presence of compound. Values are the mean±SEM of three separate experiments, each run in replicates of N=3. […]
assays were performed with PC3-M cells. Values are the mean±SEM of a single experiment, in replicates of N=4, repeated at least once (also N=4). […]

MKK4 = MKK4 (Homo sapiens, UniProt P45985); design: method as in PMID 19638505; details: low nanomolar concentrations; cited from earlier work
[1] = tested on: matrix metalloproteinase 2 (MMP-2); design: method as in PMID 19638505; details: prospective human trial; cited from earlier work
PC3 = assay: Three-day MTT cell growth inhibition assay, PC3; type: cell-based, human; details: Homo sapiens, PC-3, 72 h, 3 days
[2] = Three-day MTT cell growth inhibition assay, PC3; type: cell-based, human; details: human, PC3 cells
[3] = Three-day MTT cell growth inhibition assay, 1542NPTX; type: cell-based, human; details: human, 1542NPTX cells
1542NPTX = assay: as above; type: cell-based, human; details: Homo sapiens, 72 h, 3 days
1542CPTX = assay: Three-day MTT cell growth inhibition assay, 1542CPTX; type: cell-based, human; details: Homo sapiens, 72 h, 3 days
[4] = as above; type: cell-based, human; details: human, 1542CPTX cells
[5] = Three-day MTT cell growth inhibition assay, 1532CPTX; type: cell-based, human; details: human, 1532CPTX cells
1532CPTX = assay: as above; type: cell-based, human; details: Homo sapiens, 72 h, 3 days
[6] = tested on: human PCa PC3-M cell orthotopic implants; design: method as in PMID 18339885; details: murine orthotopic model; cited from earlier work
[7] = tested on: protein phosphorylation in PC3-M and PC3 cells; assay: KinomeView phospho-motif antibody screen; type: cell-based, human; details: 10 µM, 3 days, ± TGFβ
Description: The Kinoview™ and PhosphoScan™ assays were performed by Cell Signaling Technology Inc.
Supplementary Figure 10. Proteomic analysis of the effects of KBU2046 on the kinome. (a-c) Screening for effects on the kinome. PC3-M cells were pre-treated with 10 µM KBU2046, genistein or vehicle control for 3 days, then with ± TGFβ, as indicated. Resultant cell lysate, as well as lysate from tumors from mice treated with 150 mg/kg KBU2046 or control mice (from manuscript Figure 2a), were then probed with the KinomeView® panel of antibodies by Western blot. In instances where KBU2046 was inhibiting protein phosphorylation in cells and in tumors, a repeat experiment of PC3-M cells was conducted (Experiment #2). In addition to including PC3-M cells, as in Experiment #1, Experiment #2 expanded to examine effects on PC3 cells. (a) The identification of an 83 kDa band of interest (red arrows). This constitutes the only change […]
as in tumor tissue. […] (c) All […]
other Western blots of phospho-motif antibodies that were evaluated on initial screen. NI = tumor not informative; this denotes a tumor sample that yielded an abnormal coomassie blue staining pattern. Data from this sample was therefore not considered further.
(also on this page, place not known: cat #C32G12; tPE cat #2981; sRXY, FXs NI NI cat #2351; tXR cat #23C8D12; RXRXX(s/t) NI NI)
(1 picture or pasted object on this page, not shown here)

1532NPTX = assay: Three-day MTT cell growth inhibition assay, 1532NPTX; type: cell-based, human; details: Homo sapiens, 72 h, 3 days
[8] = as above; type: cell-based, human; details: human, 1532NPTX cells
[9] = tested on: human prostate cells (PC3, PC3-M, 1532NPTX, 1542NPTX, 1532CPTX, 1542CPTX); design: method as in PMID 15833883; details: human PCa cells, nanomolar concentrations; cited from earlier work
PC3M = assay: Three-day MTT cell growth inhibition assay, PC3M; type: cell-based, human; details: Homo sapiens, PC-3M, 72 h, PC3M
Description: (§1) Assays were in replicates of N = 3, and were repeated. […]
(§2) Values are the mean±SEM of a single experiment, in
(§3) replicates of N=4, repeated at least once (also N=4).
(§4) Supplementary Figure 1b. Synthetic round #2.

[10] = Three-day MTT cell growth inhibition assay, PC3M; type: cell-based, human; details: human; PC3M; 3 days
Description: as §1, §2, §3, §4

MKK4, sequence (P45985 whole entry): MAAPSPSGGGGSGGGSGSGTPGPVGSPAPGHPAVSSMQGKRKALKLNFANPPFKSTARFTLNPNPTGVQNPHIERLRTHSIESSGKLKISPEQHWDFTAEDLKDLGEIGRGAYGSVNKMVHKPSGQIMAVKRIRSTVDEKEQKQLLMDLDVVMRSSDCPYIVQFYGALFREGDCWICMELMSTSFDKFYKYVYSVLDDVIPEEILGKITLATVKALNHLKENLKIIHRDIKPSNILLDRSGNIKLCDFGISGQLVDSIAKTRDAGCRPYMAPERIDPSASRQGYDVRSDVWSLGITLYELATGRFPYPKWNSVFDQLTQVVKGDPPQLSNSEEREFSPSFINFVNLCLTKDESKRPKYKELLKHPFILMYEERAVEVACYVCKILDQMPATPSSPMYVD

SMILES: CN[C@@H]1C[C@H]2O[C@@](C)([C@@H]1OC)n1c3ccccc3c3c4c(c5c6ccccc6n2c5c31)C(=O)NC4 [staurosporine]
number of proteins bound (over 9000 human proteins): 214

SMILES: O=c1c(-c2ccc(O)cc2)coc2cccc(O)c12 [compound 8]
anti-invasion activity (PC3-M cells): does not affect activity

IC50 (PC3): 41.7 µM
IC50 (PC3M; concentration inhibiting cell growth by 50% after 3 days): 45.3 µM
SMILES: O=c1c(-c2ccc(O)cc2)coc2cc(O)cc(O)c12 [Genistein, 4′,5,7-trihydroxyisoflavone, reference compound]
inhibition of MKK4 kinase activity (MKK4): inhibited the kinase activity
MMP-2 expression in prostate tissue [1]: downregulates
IC20 (PC3): 18 µM
viability at 3 days, 50 µM [2]: 39.3%
viability at 3 days, 50 µM [3]: 80.5%
IC20 (1542NPTX): 18.7 µM
IC50 (1542NPTX): > 50 µM
IC20 (1542CPTX): 24.7 µM
IC50 (1542CPTX): > 50 µM
viability at 3 days, 50 µM [4]: 77.4%
viability at 3 days, 50 µM [5]: 71.7%
IC20 (1532CPTX): 30.8 µM
IC50 (1532CPTX): > 50 µM
metastasis [6]: inhibit
changes in protein phosphorylation [7]: widespread changes in protein phosphorylation
IC20 (1532NPTX): 23 µM
IC50 (1532NPTX): > 50 µM
viability at 3 days, 50 µM [8]: 66.9%
cell invasion [9]: inhibit human prostate cancer (PCa) cell invasion
IC20 (PC3M; concentration inhibiting cell growth by 20% after 3 days): 17.5 µM
viability at 3 days, 50 µM [10]: 46.2%

SMILES: COc1ccc(-c2coc3cc(OC)cc(O)c3c2=O)cc1 [compound 16]
anti-invasion activity (PC3-M cells): retains anti-invasion activity
